Source: patent publication US20050090522A1 (priority 2001, published 2005)
Where two headings read alike, the source gives them in different places.

Experiments:
[1] = Rat IV and PO pharmacokinetic studies; conditions: male, Sprague-Dawley, in vivo; for clearance: iv, 1 mg/kg, CL, iv dosing at 1 mg/kg; for AUC(0-t): po, 5 mg/kg, AUC 24 h, oral dosing at 5 mg/kg
Protocol: Rat Pharmacokinetic Studies: For the IV and PO pharmacokinetic studies of compounds in rats, the compound was dissolved in PEG-400/ethanol (90/10) as a solution. Rat. Male Sprague-Dawley rats (300-350 g, Hilltop Lab Animals, Inc., Scottdale, Pa.) with cannulas implanted in the jugular vein were used. The rats were fasted overnight in the PO pharmacokinetic studies. Blood samples of 0.3 ml were collected from the jugular vein in EDTA-containing microtainer tubes (Becton Dickinson, Franklin Lakes, N. J.), and centrifuged to separate plasma. In the IV study, the test compound was delivered at 1 mg/kg as a bolus over 0.5 min (n=3). […] Quantitation of Compounds in Plasma. […] The resulting supernates were separated from the precipitated proteins by centrifugation for 10 minutes and transferred to autosampler vials. Samples were either prepared manually, or with the use of the Tomtec automated liquid handler. An aliquot of 5 μL was injected for analysis. The HPLC system consisted of two Shimadzu LC10AD pumps (Columbia, Md.), a Shimadzu SIL-HTC autosampler (Columbia, Md.), and a Hewlett Packard Series 1100 column compartment (Palo Alto, Calif.). The column was a YMC Pro C18 (2.0×50 mm, 3 μm particles, Waters Co., Milford, Mass.), maintained at 60° C. and a flow rate of 0.3 ml/min. The mobile phase consisted of 10 mM ammonium formate and 0.1% formic acid in water (A) and 100% 10 mM ammonium formate and 0.1% formic acid in methanol (B). […] The mobile phase was then returned to initial conditions and the column re-equilibrated for 1 minute. Total analysis time was 4 minutes. The HPLC was interfaced to a Micromass Quattro LC. Ultra high purity nitrogen was used as the nebulizing and desolvation gas at flow rates of 100 L/hr for nebulization and 1100 L/hr for desolvation. The desolvation temperature was 300° C. and the source temperature was 150° C. Data acquisition utilized selected reaction monitoring (SRM). Ions representing the (M+H)^+ species for the compound and the internal standard were selected in MS 1 and collisionally dissociated with argon at a pressure of 2×10^−3 torr to form specific product ions which were subsequently monitored by MS2.
For accuracy, the determined measure of viral inhibition is an EC50; but the minimum plasma concentrations which should be maintained in a patient is generally believed to be at least four or five fold higher. […] Lower is better. • 4) Estimating potential exposure in man by measuring parameters such as AUC and rate of clearance by oral and iv dosing in rats. High exposure and low clearance was desired.
The rat model is an initial model used to assess potential for exposure in man.

HeLa cells = assay: Cytotoxicity assay in HeLa cells (MTT dye reduction, CC50); conditions: cytotoxicity; Yes = CC50 above 100 uM, No = not
Summary of the method: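 HeLa cells expressing CD4 and CCR5, grown in DMEM with 10% FBS, were used for cytotoxicity testing by MTT dye reduction; the text gives no further cytotoxicity conditions. The parallel antiviral assay exposed the same cells to compound at final <10 μM for 72 h.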

HIV-1 = HIV-1 single-round infectious luciferase reporter virus (pseudotype) assay in HeLa CD4 CCR5 cells; assay type: cell-based
Summary of the method: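 HeLa CD4 CCR5 cells (5×10^4/well, DMEM + 10% FBS) were treated with compound (final <10 μM) and infected with single-round luciferase reporter virus made in 293 cells, at MOI ~0.01. Luciferase was read 72 h post infection. EC50 came from 10-concentration percent-inhibition curves fitted to a four-parameter logistic model.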

[2] = Metabolic stability in pooled human liver microsomes (HLM); conditions: pooled human liver microsomes, 3 μM drug; Low/Intermediate/High
Summary of the method: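 Pooled human liver microsomes (0.9 mg/ml final) in 0.1 M potassium phosphate pH 7.4 with 0.033 mM MgCl2 and an NADPH-regenerating system. Compound pre-incubated 2 min, reaction started with cofactors, run 10 min at 37° C, quenched in acetonitrile and analysed by LC/MS.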

[3] = Human immunodeficiency virus 1, HeLa-CD4/CCR5, read-out: EC50 Group from TABLE 1, HeLa CD4 CCR5 cells, single-round infectious luciferase reporter virus
[4] = Human immunodeficiency virus 1, HeLa-CD4/CCR5, read-out: EC50 category, HIV-1 single-round reporter virus assay, category 1/2/3 per Table A1 key
[5] = Human immunodeficiency virus 1, HeLa-CD4/CCR5, read-out: EC50 Group from Table 1, Table 2-1, HeLa CD4 CCR5 cells, single-round luciferase reporter virus
[6] = Human immunodeficiency virus 1, HeLa-CD4/CCR5, 72 h, read-out: EC50 Group from Table 1, HeLa CD4 CCR5 cells, luciferase reporter virus, harvested 72 h after infection

SMILES	clearance [1]	AUC(0-t) [1]	CC50 > 100 uM (HeLa cells)	EC50 (HIV-1; [3])	EC50 (HIV-1; [4])	HLM predicted human clearance class [2]	EC50 (HIV-1; [5])	EC50 (HIV-1; [6])
Nc1ccn(-c2ncc(F)c3c(C(=O)C(=O)N4CCN(C(=O)c5ccccc5)CC4)c[nH]c23)n1 [Example 309]	34.3 ± 2.6 mL/min/kg	0.09 ± 0.05 µg·h/mL	Yes	< 1 µM	< 0.0002 µM	Low (0-0.100)		
Cc1ccn(-c2ncc(F)c3c(C(=O)C(=O)N4CCN(C(=O)c5ccccc5)CC4)c[nH]c23)n1 [Example 310]	16.5 ± 3.3 mL/min/kg	2.1 ± 0.4 µg·h/mL	Yes	< 1 µM	< 0.0002 µM	Low (0-0.100)		
COc1cnc(-n2cnc(C)n2)c2[nH]cc(C(=O)C(=O)N3CCN(C(=O)c4ccccc4)[C@H](C)C3)c12 [Example 317]	1.9 ± 0.26 mL/min/kg	43 ± 12 µg·h/mL	Yes		< 0.0002 µM	Low (0-0.100)	< 1 µM	
CCc1ncn(-c2ncc(OC)c3c(C(=O)C(=O)N4CCN(C(=O)c5ccccc5)[C@H](C)C4)c[nH]c23)n1 [Example 322]	1.8 ± 0.4 mL/min/kg	82 ± 23 µg·h/mL	Yes		< 0.0002 µM	Low (0-0.100)	< 1 µM	
COc1cnc(-n2cc(C)nn2)c2[nH]cc(C(=O)C(=O)N3CCN(C(=O)c4ccccc4)[C@H](C)C3)c12 [Example 326]	8.3 mL/min/kg	9.8 ± 2.9 µg·h/mL	Yes		< 0.0002 µM	Low (0-0.100)	< 1 µM	
C[C@@H]1CN(C(=O)C(=O)c2c[nH]c3c(-c4ncco4)ccnc23)CCN1C(=O)c1ccccc1 [Example 353]	5.6 ± 1.1 mL/min/kg	1360 ± 307 µg·h/mL	Yes		0.0002 to 1 µM	Low (0-0.100)		< 1 µM
C[C@@H]1CN(C(=O)C(=O)c2c[nH]c3c(-c4nccs4)ccnc23)CCN1C(=O)c1ccccc1 [Example 354]	11.2 ± 0.8 mL/min/kg	1.26 µg·h/mL	Yes		0.0002 to 1 µM	Low (0-0.100)		< 1 µM
C[C@@H]1CN(C(=O)C(=O)c2c[nH]c3c(-n4nccn4)ccnc23)CCN1C(=O)c1ccccc1 [Example 355]	13.9 ± 5.3 mL/min/kg	3.3 ± 0.77 µg·h/mL	Yes		0.0002 to 1 µM	Low (0-0.100)		< 1 µM
